Patent publication EP4079301A2, “COMPOSITIONS COMPRISING CANNABIDIOL AND, OPTIONALLY, BISABOLOL” (Symrise AG, priority 2021, dated 2022)

Tests used:
Assay type in all cases: cell-based
Cortisol = Cortisol competitive ELISA on explant culture media; conditions: for Cortisol (ng/mL), Mean: released in BEM culture medium
Experimental: (§1) On day 0 (D0), D1, D4, D5 and D7, the product P was topically applied on the basis of 2 mg/cm^2 (± 2µL per explant) and spread using a small spatula. […] The culture medium was half renewed (1 ml per well) on D1, D4, D5 and D7.
(§2) On day 0 (D0), the 3 explants from the batch T0 were collected and cut into 2 parts: half was fixed in formalin buffered solution and half was frozen at -80°C. On D5 and D9, the 3 explants of each batch were collected and processed in the same way than on day 0; the fourth explants were kept frozen at -80°C. The culture media of all explants were collected on D1, D4, D5, D7 (1 ml per explant) and on day 9 (2 ml per explant) and stored at -20°C for cortisol dosage.
Cortisol competitive assay was performed with human Cortisol ELISA kit (Enzo life sciences, ref. 25-0358-ADI-901-071). According to provider's guidelines, the culture media were diluted at 1/200 and the Cortisol standards were incubated for 2 hours at room temperature with a monoclonal antibody specific to Cortisol in a sample or an alkaline phosphatase molecule which has Cortisol covalently attached to it. […] The intensity of the bound yellow color is inversely proportional to the concentration of Cortisol in either standards or samples. Absorbance at 405 nm was measured using the M200Pro Tecan microplate reader and Magellan7 software. Cortisol assay was performed on culture BEM media on day 5 (pool of D1, D4, D5 culture media) and day 9 (pool of D7 and D9 culture media). The concentration of cortisol was expressed in ng/ml.

Beta-endorphin = Beta-endorphin immunostaining of explant skin sections with image analysis; conditions: for Beta-endorphin in the epidermis (% surface), Average: image analysis
Experimental: as §1, §2
(§3) After fixation for 24 hours in buffered formalin solution, the samples were dehydrated and impregnated in paraffin using a Leica PEARL dehydration automat. The samples were then paraffin-embedded using a Leica EG 1160 embedding station. 5-µm-thick sections of formol fixed paraffin-embedded (FFPE) skin sections were realized using a Leica RM 2125 Minot-type microtome, and the sections were then mounted on Superfrost® Plus glass slides. The frozen samples were cut into 7-µm-thick sections using a Leica CM 3050 cryostat. Sections were then mounted on Superfrost® plus silanized glass slides. Microscopical observations were realized using a Leica DMLB, a BX43 or BX63 Olympus microscope. Pictures were digitized with an Olympus DP72 or DP74 camera and the cellSens dimension data storing software (Olympus).
The immunostaining was assessed by microscopical observation and image analysis.
The images analyses were performed on all the images of each batch, according to the following method using cellSens software. The process is illustrated in Figure 2. For each batch of explants, the percentage of the region of interest covered by the staining (stained surface percentage) is determined by image analysis according to the previously described process.
The stained surface percentage (Surf%) for each treatment was compared to the untreated condition => P vs T.

epidermis and dermis = assay: Control of cell viability of skin explants (Masson's trichrome staining, Goldner variant); conditions: for Cell viability Dermis / Cell viability Epidermis: explants
Experimental: The explants were distributed into 3 batches as follows:
as §1, §2, §3
The observation of the cell viability of the epidermis and dermis was performed after staining of formalin-fixed paraffin- embedded (FFPE) skin sections according to Masson's trichrome, Goldner variant.

[1] = topical 2 mg/cm^2, day 5 (batch PJ5)
[2] = topical 2 mg/cm^2, day 9 (batch PJ9)

C=C(C)[C@@H]1CCC(C)=C[C@H]1c1c(O)cc(CCCCC)cc1O [Cannabidiol]
decrease of cortisol (Cortisol; D5, compared to the batch TJ5): 24% | decrease of cortisol (Cortisol; D9, compared to the batch TJ9): 18% | Cortisol (ng/mL), Mean (Cortisol; day 5 (pool of D1, D4, D5), batch PJ5): 246.5 ng/mL | Cortisol (ng/mL), Mean (Cortisol; day 9 (pool of D7 and D9), batch PJ9): 255.1 ng/mL | Effect of product application on beta-endorphin expression (microscopical observation of staining in the epidermis) (Beta-endorphin; D5, compared to the batch TJ5): slight increase | increase of beta-endorphin expression (Beta-endorphin; D5, compared to the batch TJ5, image analysis): 24% | Effect of product application on beta-endorphin expression (microscopical observation of staining in the epidermis) (Beta-endorphin; D9, compared to the batch TJ9): slight increase | increase of beta-endorphin expression (Beta-endorphin; D9, compared to the batch TJ9, image analysis): 30% | Beta-endorphin in the epidermis (% surface), Average (Beta-endorphin; day 5 (batch PJ5)): 33.1 % surface | Beta-endorphin in the epidermis (% surface), Average (Beta-endorphin; day 9 (batch PJ9)): 12.5 % surface | Effect of product application on cell viability (epidermis and dermis; D5, compared to the batch TJ5): no modification | Effect of product application on cell viability (epidermis and dermis; D9, compared to the batch TJ9): no modification | Cell viability Dermis (epidermis and dermis; [1]): good | Cell viability Epidermis (epidermis and dermis; [1]): good | Cell viability Dermis (epidermis and dermis; [2]): good | Cell viability Epidermis (epidermis and dermis; [2]): fairly good
